Laboratory results as given in paper PMC9500858 (International Journal of Molecular Sciences, 2022).
Read-outs that look alike come from different tables or passages of the source.

Columns and labels:
[1] = Acid hydrolysis (1 M HCl) forced degradation, LC-MS; assay type: physicochemical; conditions: for Recovery / Concentration Found (Mean ± SD): acidic degradation, 50 μg/mL in 1 M HCl, n = 3; for Concentration Found (Mean ± SD): neutralised with 1 M NaOH; for half-life in 1M HCl: calculated half-life, acidic conditions, 50 μg/mL, temperature not given for the half-life
Description: (§1) The separation was carried out using Kinetex XB-C18 column (150 mm × 2.1 mm × 1.7 μm; Phenomenex, Torrance, CA, USA). The mobile phase consisted of A: 0.1% formic acid in deionized water and B: 0.1% formic acid in acetonitrile (MeCN). The two-step gradient was used from 5% B to 50% B in 13 min and from 50% B to 65% B up to 20 min. The column temperature was maintained at 25 °C with a flow rate equal to 0.3 mL/min. The eluate was introduced directly to the mass spectrometer. The ion trap setting was as follows: capillary voltage 4500 V, endplate offset 500 V, nebulizer pressure 40 psi, drying gas temperature 145 °C and gas flow rate 9 L/min. The instrument used a smart parameter setting (SPS) fixed at 1000 amu. The scan range was from m/z = 70 to m/z = 2200. Compounds were analyzed in […] ion mode.
(§2) Before LC analysis, the ionization of each quantified compound in the positive ion mode was optimized by the direct injection of standard (50 µg/mL in 0.1% HCOOH in H2O; 0.3 mL/min) into the ESI source of the mass spectrometer. The intensity of the most abundant ion for each compound was monitored in order to choose optimal conditions. The quantification of investigated compounds was performed using the dominating ion (for both PK20 and [Ile^9] PK20 the ion at m/z =1357.40 ± 0.3, retention time ca. 11.2 min).
(§3) The calibration curves were plotted as the amount of injected compound (ng) vs. detector response (peak area) using extracted ion chromatograms (EIC) for the characteristic ion for each compound. The linear range for each quantified compound was between 5 and 200 ng per injection. Five amount levels were used for the plotting of curves. Samples at each level were analyzed in triplicate.
(§4) The stability of PK20 and [Ile^9]PK20 was tested under acidic, basic, oxidative, heat, freeze and ultraviolet light conditions. All experiments were conducted in triplicate (n = 3). The comparison of peak areas in degradative and non-degradative conditions for both compounds can be observed in Figure 3 and Figure 4.
(§5) Drug solution (50 μg/mL) was prepared in HCl (1 M) or NaOH (1 M). Aliquots were kept at a temperature of 80 °C (LBK type water bath, SWL Bytom, Poland) for 12 h and 37°C (medical water bath, LW102, Auritronic, Krakow, Poland) for 24 h. At a specific time-point, acidic and basic solutions of both PK20 and [Ile^9]PK20 were neutralized with an equal volume of 1 M NaOH or 1 M HCl, respectively, and diluted with an equal volume of 0.2% formic acid in acetonitrile and analyzed using LC-MS.

[2] = Photolytic (UV) degradation in Mili-Q water, LC-MS; assay type: physicochemical; conditions: 365 nm UV light, 7 h, 50 μg/mL in Mili-Q water, clear plastic vials, n = 3
Description: as §1, §2, §3, §4
PK20 and [Ile^9]PK20 solution (50 μg/mL) was prepared in Mili-Q water, and aliquots were kept in clear plastic vials exposed to UV light (366 nm, Camag, UV Lamp 4, Camag, Switzerland) for 7 h. After the incubation, the drug solution was diluted with an equal volume of 0.2% formic acid in acetonitrile and analyzed with LC-MS.

[3] = Oxidative degradation (30% H2O2), LC-MS; assay type: physicochemical; conditions: n = 3
Description: as §1, §2, §3, §4
PK20 and [Ile^9]PK20 solution (50 μg/mL) was prepared in 30% (v/v) hydrogen peroxide (H2O2). Aliquots were incubated at 37 °C for 24 h and 80 °C for 12 h. After the incubation, each drug solution was diluted with an equal volume of 0.2% formic acid in acetonitrile and analyzed with LC-MS.

[4] = Thermal degradation and freeze-thaw in Mili-Q water, LC-MS; assay type: physicochemical; conditions: 50 μg/mL in Mili-Q water; for Concentration Found (Mean ± SD) / Recovery: n = 3
Description: as §1, §2, §3, §4
Solutions (50 μg/mL) of both hybrid peptides were prepared in Mili-Q water, and aliquots were kept at room temperature 22 °C, 37 °C and −80 °C for 24 h and at 80 °C for 12 h. One aliquot was also subjected to two freeze–thaw cycles with the sample first frozen at −80°C for 24 h, defrosted under running tap water at room temperature for 2 h and second frozen at −20°C for 24 h and defrosted under running tap water at room temperature for 2 h. Then, the solutions of PK20 and [Ile^9]PK20 were diluted with an equal volume of 0.2% formic acid in acetonitrile and analyzed with LC-MS.

[5] = Base hydrolysis (1 M NaOH) forced degradation, LC-MS; assay type: physicochemical; conditions: for Recovery / Concentration Found (Mean ± SD): basic degradation, 50 μg/mL in 1 M NaOH, n = 3; for Concentration Found (Mean ± SD): neutralised with 1 M HCl; for half-life (t1/2) in 1M NaOH: calculated half-life, alkaline conditions, 50 μg/mL, temperature not given for the half-life
Description: as §1, §2, §3, §4, §5

[6] = tested on: CA1 region of the hippocampus; conditions: combined administration with NMDA, cited from earlier work
Description: (§6) Since hybrid compounds have gained attention due to their potent multifunctional behavior with a more favorable profile in terms of possible side effects, much work devoted to such compounds can be found. PK20 and [Ile^9]PK20, which are hybrid structures encompassing both opioid and neurotensin pharmacophores, although modified, were designed and synthesized to reduce pain.

[7] = target: mu opioid receptor; conditions: intrinsic activity of the receptor; read-out: EC50 (potency) at mu opioid receptor; cited from earlier work
Description: as §6

[8] = tested on: CA1 region of the hippocampus; assay: Excitotoxic injury in organotypic hippocampal slice cultures subjected to NMDA; assay type: cell-based, Rat; conditions: administered simultaneously with NMDA, data not published
[9] = 0.005 nmol/rat at 120 min and 0.02 nmol/rat at 30, 60 and 120 min; cited from earlier work
Description: as §6

[10] = 37 °C, 24 h, LC-MS (EIC m/z 1357.40)
[11] = 50 μg/mL in 30% (v/v) H2O2, 37 °C, 24 h
[12] = 50 μg/mL in 30% (v/v) H2O2, 80 °C, 12 h
[13] = thermal degradation, 37 °C, 24 h
[14] = thermal degradation, 80 °C, 12 h
[15] = thermal degradation, room temperature (22 °C), 24 h
[16] = thermal degradation, −80 °C, 24 h
[17] = thermal, temperatures ranging from 22 °C through 37 °C to +80 °C
[18] = two freeze–thaw cycles (24 h −80 °C, 2 h 22 °C, 24 h −20 °C)

Substance	Recovery ([1]; 37 °C, 24 h, LC-MS) [%]	Concentration Found (Mean ± SD) [1, 10] [ng/mL]	Recovery ([1]; 80 °C, 12 h, LC-MS) [%]	Concentration Found (Mean ± SD) ([1]; 80 °C, 12 h, LC-MS) [ng/mL]	half-life in 1M HCl ([1]; LC-MS) [h]	Concentration Found (Mean ± SD) [2] [ng/mL]	Recovery [2] [%]	Concentration Found (Mean ± SD) [3, 11] [ng/mL]	Recovery [3, 11] [%]	Concentration Found (Mean ± SD) [3, 12] [ng/mL]	Recovery [3, 12] [%]	Concentration Found (Mean ± SD) [4, 13] [ng/mL]	Recovery [4, 13] [%]	Concentration Found (Mean ± SD) [4, 14] [ng/mL]	Recovery [4, 14] [%]	Concentration Found (Mean ± SD) [4, 15] [ng/mL]	Recovery [4, 15] [%]	Concentration Found (Mean ± SD) [4, 16] [ng/mL]	Recovery [4, 16] [%]	Concentration Found (Mean ± SD) [4, 18] [ng/mL]	other results
HELM PEPTIDE1{[Cc1cc(O)cc(C)c1C[C@H](N)C(=O)[*:2]].[dK].F.F.K.K.P.F.[CC(C)(C)[C@H](N[*:1])C(=O)[*:2]].L}$$$$V2.0 (N-terminus assumed; SMILES Cc1cc(O)cc(C)c1C[C@H](N)C(=O)N[C@H](CCCCN)C(=O)N[C@@H](Cc1ccccc1)C(=O)N[C@@H](Cc1ccccc1)C(=O)N[C@@H](CCCCN)C(=O)N[C@@H](CCCCN)C(=O)N1CCC[C@H]1C(=O)N[C@@H](Cc1ccccc1)C(=O)N[C@H](C(=O)N[C@@H](CC(C)C)C(=O)O)C(C)(C)C) [PK20, opioid–neurotensin hybrid peptide]	78.19	39090 ± 6330	54.43	27220 ± 2750	204.4	18720 ± 940	37.44	30520 ± 490	61.04	9800 ± 200	19.60	49980 ± 350	99.97	48670 ± 2740	97.34	51360 ± 1640	102.72	51900 ± 200	103.80	43250 ± 9420	remaining concentration of the peptide [4, 17]: approximately 50 μg/mL; remaining peptide as percentage [4, 17]: ~100%; Recovery [4, 18]: 86.50%; Recovery ([5]; 37 °C, 24 h): 30.32%; Concentration Found (Mean ± SD) ([5]; 37 °C, 24 h): 15160 ± 340 ng/mL; Recovery ([5]; 80 °C, 12 h): 11.44%; Concentration Found (Mean ± SD) ([5]; 80 °C, 12 h): 5710 ± 1670 ng/mL; half-life (t1/2) in 1M NaOH [5]: 11.36 h; extent of damage to the CA1 region of the hippocampus ([6]; dose 25 ng/mL): 1.47% ± 1.20; extent of damage to the CA1 region of the hippocampus ([6]; dose 50 ng/mL): 5.18% ± 2.84; extent of damage to the CA1 region of the hippocampus ([6]; dose 100 ng/mL): 6.82% ± 6.08; EC50 [7]: 79 nM
HELM PEPTIDE1{[Cc1cc(O)cc(C)c1C[C@H](N)C(=O)[*:2]].[dK].F.F.K.K.P.F.I.L}$$$$V2.0 (N-terminus assumed; SMILES CC[C@H](C)[C@H](NC(=O)[C@H](Cc1ccccc1)NC(=O)[C@@H]1CCCN1C(=O)[C@H](CCCCN)NC(=O)[C@H](CCCCN)NC(=O)[C@H](Cc1ccccc1)NC(=O)[C@H](Cc1ccccc1)NC(=O)[C@@H](CCCCN)NC(=O)[C@@H](N)Cc1c(C)cc(O)cc1C)C(=O)N[C@@H](CC(C)C)C(=O)O) [[Ile^9]PK20, analogue of PK20 with Ile instead of Tle at position 9]	88.79	44390 ± 4480	52.25	26120 ± 1520	117.7	9630 ± 110	19.25	31390 ± 270	62.79	8240 ± 6690	16.48	44160 ± 990	88.32	43270 ± 1180	86.54	49710 ± 2240	99.41	51870 ± 400	103.74	49040 ± 1030	extent of damage to the CA1 region of the hippocampus ([8]; dose 25 ng/mL): 8.53% ± 2.65; extent of damage to the CA1 region of the hippocampus ([8]; dose 50 ng/mL): 19.04% ± 8.52; extent of damage to the CA1 region of the hippocampus ([8]; dose 100 ng/mL): 8.62% ± 0.62; Recovery ([5]; 37 °C, 24 h): 37.13%; Concentration Found (Mean ± SD) ([5]; 37 °C, 24 h): 18560 ± 590 ng/mL; Recovery ([5]; 80 °C, 12 h): 11.23%; Concentration Found (Mean ± SD) ([5]; 80 °C, 12 h): 5610 ± 1830 ng/mL; half-life (t1/2) in 1M NaOH [5]: 4.69 h; induced analgesia compared to PK20 [9]: significantly lower; EC50 [7]: 1240 nM
